Target: Dopamine receptor (Bos taurus, UniProt Q95136+P20288)
Assay: Evaluated for the inhibition of binding of [3H]DA (dopamine) to dopamine receptor in calf striatal homogenate

NC1CCc2cc(O)c(O)cc2C1 (stereo unspecified) gave an IC50 of 6 nM.

Source: ChEMBL document CHEMBL1122198, “Synthesis and dopamine receptor binding of exo- and endo-2-amino-6,7-dihydroxybenzonorbornene, rigid analogues of 2-amino-6,7-dihydroxytetrahydronaphthalene” (J Med Chem, 1982)
